According to patent publication US8653110B2, “Active compound combination comprising azadirachtin and a substituted enaminocarbonyl compound” (Bayer CropScience AG, priority 2010, dated 2014):

Columns and labels:
[1] = test system: Spodoptera frugiperda; test: Fall armyworm caterpillars on maize, feeding damage (Example 8); type: in vivo; conditions: reduction of feeding damage, (I-1) 50, azadirachtin 30, (I-1)+azadirachtin 50+30, imidacloprid 100 g/ha
[2] = test system: Trialeurodes vaporariorum; test: Whiteflies on tomatoes (Example 5); type: in vivo; conditions: (I-1) 50, azadirachtin 30, (I-1)+azadirachtin 50+30, imidacloprid 100 g/ha
Description: Example 5 describes the effect of the combination according to the invention against whiteflies (Trialeurodes vaporariorum) on tomatoes (Lycopersicon esculentum). The test was carried out under GEP according to EPPO guideline PP 1/36(2) with 3 repetitions of in each case 4 plants. At the start of the infection, the plants were treated as follows: • 1. untreated • 2. compound (I-1) as SL 200 (compound according to formula (I-1), 17% strength), 50 g of active compound/ha • 3. azadirachtin 30 g of active compound/ha, NeemAzal® • 4. azadirachtin 15 g of active compound/ha, NeemAzal® • 5. azadirachtin 5 g of active compound/ha, NeemAzal® • 6. compound (I-1) as SL 200+azadirachtin, 50+30 g of active compound/ha • 7. compound (I-1) as SL 200+azadirachtin, 50+15 g of active compound/ha • 8. compound (I-1) as SL 200+azadirachtin, 50+5 g of active compound/ha • 9. positive control imidacloprid 100 g of active compound/ha
The spray solution was prepared by mixing commercial formulations and using water to adjust to the concentration mentioned. The application rate was 1000 l/ha. 2 applications were carried out at intervals of 14 days. The number of adult flies and the number of larvae were scored on days 2 to 21 after the first application. What is shown is the effect of the products, which becomes evident in a reduction of the number of insects or larvae compared to the untreated control. Imidacloprid was also tested, as positive control.

[3] = test system: Phaedon cochleariae; test: Phaedon cochleariae larvae test (Example 3); conditions: cabbage leaves sprayed, (I-1) 120 g of ai/ha, Azadirachta indica 20%, combination 120 g + 20%
[4] = test system: Cyclocephala immaculata; test: Watering test with beetle larvae (Example 2); type: in vivo; conditions: L3 larvae, watering, (I-1) 600, azadirachtin 60, (I-1)+azadirachtin 600+60, trichlorfon 4529 g of active compound/ha
Excerpt: Beetle larvae (grubs) are important lawn pests. On the one hand, they feed on grass roots, damaging them directly, on the other hand they are a favoured food for birds which, searching for grubs, destroy the turf. For treatment against grubs, infested lawns are usually watered with insecticidal compositions. This type of treatment is emulated in the laboratory by Example 2.
To prepare a suitable active compound preparation, a commercial formulation of active compound or active compound combination is mixed with water until the desired concentration is reached. Pots with soil substrate were watered with the following active compound preparations: • 1. untreated • 2. compound (I-1) as SL 200, 600 g of active compound/ha • 3. azadirachtin, 60 g of active compound/ha • 4. compound (I-1) as SL 200+azadirachtin, 600+60 g of active compound/ha • 5. positive control: trichlorfon 4529 g of active compound/ha
L3 larvae of Cyclocephala immaculata were placed onto the pots. After 1, 4, 7, 14 days, the survival rate was determined, and this was used to calculate the efficacy of the compositions. 100% means that all grubs were killed, 0% means no activity.

[5] = test system: Diabrotica balteata; test: Diabrotica balteata test, larvae in soil (Example 4); type: in vivo; conditions: soil treatment, maize, (I-1) 60 g of ai/ha, Azadirachta indica 20%, combination 60 g + 20%
Description: • Solvent: 4 parts by weight of acetone • Emulsifier: 1 part by weight of alkylaryl polyglycol ether
The active compound preparation was mixed with soil. […] The treated soil is filled into pots, and 5 maize corns are placed into each pot. 3 days after sowing, larvae of the corn rootworm (Diabrotica balteata) are placed into the treated soil.
The efficacy is calculated from the number of maize plants that have emerged.

[6] = test system: Plutella xylostella; test: Diamondback moth bioassay on Savoy cabbage leaf discs (Example 9); type: in vivo; conditions: (I-1) 50, azadirachtin 30, (I-1)+azadirachtin 50+30, imidacloprid 100 g/ha
Description: Example 9 also describes the effect of the combination according to the invention on caterpillars of diamondback moth Plutella xylostella on Savoy cabbage. The plants were grown in a greenhouse, and five plants each were treated as follows: The spray solution was prepared by mixing commercial formulations and using water to adjust to the concentration mentioned. The application rate was 1000 l/ha. • 1. untreated • 2. compound (I-1) as SL 200 (compound according to formula (I-1), 17% strength), 50 g of active compound/ha • 3. azadirachtin 30 g of active compound/ha, NeemAzal® • 4. azadirachtin 15 g of active compound/ha, NeemAzal® • 5. azadirachtin 5 g of active compound/ha, NeemAzal® • 6. compound (I-1) as SL 200+azadirachtin, 50+30 g of active compound/ha • 7. compound (I-1) as SL 200+azadirachtin, 50+15 g of active compound/ha • 8. compound (I-1) as SL 200+azadirachtin, 50+5 g of active compound/ha • 9. positive control imidacloprid 100 g of active compound/ha
The plants were incubated under greenhouse conditions (20° C., 70% relative atmospheric humidity), the plants being placed at random. After 3 days, the first leaf samples were taken. Here, 5 leaves were picked from each plant. 10 leaf discs of a diameter of 6 cm were punched from the leaves and placed in Petri dishes covered with moistened filter paper. Once the leaf discs had been placed into the Petri dishes, 5 Plutella xylostella larvae of the L2 instar were added. The Petri dishes were placed on a tablett, covered with a dark film and kept at 20° C. in the laboratory. Evaluation was carried out on days 9, 14 and 21 after the addition of the larvae, the number of surviving animals being scored.
What is shown is the effect of the products, which becomes evident in a reduction of the number of diamondback moths compared to the untreated control.

O=C1C=C(N(Cc2ccc(Cl)nc2)CC(F)F)CO1 [(I-1), 4-{[(6-chloropyrid-3-yl)methyl](2,2-difluoroethyl)amino}furan-2(5H)-one]
Activity against Spodoptera frugiperda [%] ([1]; Day 7): 0%
Activity against Spodoptera frugiperda [%] ([1]; Day 14): 0%
Activity against Spodoptera frugiperda [%] ([1]; Day 21): 0%
Activity against Spodoptera frugiperda [%] ([1]; Days 28-32): 0%
Activity against Spodoptera frugiperda [%] ([1]; Days 35-42): 0%
Activity against adults [%] ([2]; Day 2): 73%
Activity against larvae [%] ([2]; Day 2): 0%
Activity against adults [%] ([2]; Day 7): 75%
Activity against larvae [%] ([2]; Day 7): 18%
Activity against adults [%] ([2]; Day 14): 22%
Activity against larvae [%] ([2]; Day 14): 0%
Activity against adults [%] ([2]; Day 21): 57%
Activity against larvae [%] ([2]; Day 21): 14%
Kill in % after 1d (found) [3]: 15%
Effect on day 1 in % ([4]; day 1): 0%
Effect on day 4 in % ([4]; day 4): 28%
Effect on day 7 in % ([4]; day 7): 0%
Effect on day 14 in % ([4]; day 14): 29%
Kill in % after 5d (found) [5]: 75%
Activity against Plutella xylostella [%] ([6]; Day 9): 0%
Activity against Plutella xylostella [%] ([6]; Day 14): 21%
Activity against Plutella xylostella [%] ([6]; Day 21): 34%
